Test [1] concerns human multiple myeloma (MM) cell lines. As to the kind of experiment: colorimetric (WST-8) growth assay. The format is cell-based. Particulars: for IC50: Homo sapiens. An excerpt:
Cells: Dexamethasone (Dex)-sensitive MM.1S (wild-type p53) and Dex-resistant MM.1R, RPMI 8226-Dox40 (doxorubicin resistant) and RPMI 8226-LR5 (melphalan resistant) human multiple myeloma (MM) cell lines were used. RPMI-8226 and U266 cells were obtained from the American Type Culture Collection (Rockville, Md.). SU-DHL-4 cells were also utilized. Fresh peripheral blood mononuclear cells (PBMNCs) were obtained from healthy subjects after informed consent. The PBMNC were separated from heparinized peripheral blood by Ficoll-Hipaque density sedimentation. BM specimens were acquired from patients with MM after obtaining informed consent and mononuclear cells were separated by Ficoll-Hipaque density sedimentation. Cells were cultured at 37° C. in RPMI 1640 containing 10% fetal bovine serum (FBS; Sigma, St Louis, Mo.), […], 100 U/mL penicillin, and 100 μg/mL streptomycin (Gibco, Grand Island, N.Y.).
Reagents: Honokiol (HNK; Calbiochem, San Diego, Calif.) was dissolved in ethanol at 20 mg/ml stock solution. Recombinant human interleukin-6 (IL-6), vascular endothelial growth factor (VEGF) and insulin-like growth factor-1 (IGF-1) (R&D Systems, Minneapolis, Minn.) were reconstituted with sterile PBS containing 0.1% FBS (IL-6 and VEGF) and 10 mM of acetic acid containing 0.1% FBS (IGF-1), respectively. Pan-caspase inhibitor z-VAD-fmk (Bachem, Bubendorf, Switzerland) was dissolved in methanol. These reagents were stored at −20° C. and diluted by media just before the use. Doxorubicin (Sigma, St Louis, Mo.) was dissolved in sterile water at the concentration of 3.45 mM. […] Absorbance readings at a wavelength of 450 nm were taken on a spectrophotometer (Molecular Devices Corp., Sunnyvale, Calif.).
HNK inhibits growth of MM cell lines. To identify the therapeutic potential of HNK, MM cell lines and normal PBMNCs were cultured at indicated concentration with HNK for 48 h, and growth was determined by calorimetric assays. […] FIGS. 6A and B show growth inhibition in MM cell lines by HNK as assessed by calorimetric assay after 48 h-culture. […]
Background: Formazan colour is commonly taken as a measure of viable cells.

Test [2] concerns AKT, p44/42 MAPK, and Src phosphorylation in SVR cells. The test is described as follows: Western blotting of phosphorylated intracellular proteins. The test is classed as cell-based. The source says:
FIG. 14 depicts the effects of honokiol on the phosphorylation of various intracellular proteins. […] Cells were lysed and analyzed by Western blotting using antibodies specific for the phosphorylated (P-AKT, P-MAPK, and P-Src) or unphosphorylated forms of AKT and MAPK. […] Cells were lysed and analyzed by Western blotting using antibodies specific for the phosphorylated (P-Akt, P-MAPK, and P-Src) or unphosphorylated forms of Akt and MAPK.

The next test relates to HIF-1a in PC3 cells. As to the kind of experiment: HIF-1a induction. The test is classed as cell-based, human. As to conditions: normoxia or hypoxia. As for the experimental part: Bharti, A. C. et al (2004) Blood 103, 3175-3184; Arbiser, J. L et al (1998) Mol. Med. 4, 376-383; Woods, A. et al (2003) Current Biology 13, 2004-2008; Shaw, R. J. et al (2004) PNAS 101, 3329-3335; Buzzai, M. et al (2005) Oncogene 24, 4165-4173). […] PC3 cells were treated with honokiol in normoxia (left) or hypoxia (right). In both cases, HIF-1a induction is dose dependent, and in the case of hypoxia, at least additive.

Test [3] relates to SHSY5Y and SHEP neuroblastoma cells. As to the kind of experiment: cancer cell viability, TSA in combination with honokiol. The format is cell-based. As to conditions: 0-1 uM TSA alone or in combination with honokiol. An excerpt:
In FIG. 43, the effects on cancer cell viability after treatment with trichostatin A (TSA), a histone deacetylase inhibitor, in combination with honokiol were examined.

These results are taken from patent US20080300298A1, “Honokiol Derivates For the Treatment of Proliferative Disorders” (priority 2005, published 2008).

≈ marks a conversion by molar mass, not a printed value. Like-named read-outs stand apart in the source and are kept apart here. Bounds are passed on as bounds.

As for `C=CCc1ccc(O)c(-c2ccc(O)c(CC=C)c2)c1` [HNK, Honokiol], the half-inhibitory concentration (IC50) is 8 to 10 µg/mL (≈ 30 to 37.5 µM) in test [1] (drug sensitive RPM18226, U266 and MM.1S cells, 48 h, read-out: fifty percent inhibition (IC50) at 48 h); < 10 µg/mL in test [1] (including Melphalan-, Doxorubicin- and Dex-resistant cell lines, read-out: IC50 of growth inhibition of MM cell lines). The “growth of drug resistant cell lines” value in test [1] (RPM18226-Dox40, RPM18226-LR5 and MM.1R cells, 48 h) was “IC50 values similar to parental drug-sensitive cell lines”. The “phosphorylation of Akt, p44/42 MAPK, Src at low concentrations” value in test [2] (2.7, 6.7 or 13.3 μg/ml, 2, 6 or 24 h) is reported as “inhibits phosphorylation of Akt at low concentrations but not p44/42 MAPK or Src”. Also, the “phosphorylation of AKT, p44/42 MAPK, and Src” value in test [2] (20, 30, 40 or 45 μg/ml, 1 h) is “inhibits phosphorylation of AKT, p44/42 MAPK, and Src”. Moreover, the HIF-1a induction result with HIF-1a in PC3 cells is “activated HIF-1a in prostate cancer cells in a dose dependent manner”. For the same compound, the “percent of viable cells, combination with TSA compared with TSA alone” value in test [3] was “significant decrease in the percent of viable cells”.

As a reminder, the IC50 is the concentration at which inhibition is half-maximal.
